Laboratory results from US6509361B1, “1,5-Diaryl substituted pyrazoles as p38 kinase inhibitors” (Pharmacia Corporation, priority 2001, dated 2003).

What was measured:
[1] = molecular target: T1, human p38 kinase alpha (Homo sapiens, UniProt Q16539); assay: p38 Kinase Assay (in vitro; PHAS-I/32P-ATP format or EGFRP/33P-ATP format); type: biochemical; settings: activated human p38 kinase alpha, 50 μM unlabeled ATP; table does not say which of the two assay formats
T1 construct: The coding region of the human p38a cDNA was obtained by PCR-amplification from RNA isolated from the human monocyte cell line THP.1; GST (N); made in house; host or cells: E. coli DH10B
Experimental: The coding region of the human p38a cDNA was obtained by PCR-amplification from RNA isolated from the human monocyte cell line THP.1. First strand cDNA was synthesized from total RNA as follows: 2 μg of RNA was annealed to 100 ng of random hexamer primers in a 10 μl reaction by heating to 70° C. for 10 minutes followed by 2 minutes on ice. cDNA was then synthesized by adding 1 μl of RNAsin (Promega, Madison Wis.), 2 μl of 50 mM dNTP's, 4 μl of 5×buffer, 2 μl of 100 mM DTT and 1 μl (200 U) of Superscript II™ […] reverse transcriptase. Random primer, dNTP's and Superscript™ reagents were all purchased from Life-Technologies, Gaithersburg, Mass. The reaction was incubated at 42° C. for 1 hour. Amplification of p38 cDNA was performed by aliquoting 5 μl of the reverse transcriptase reaction into a 100 μl PCR reaction containing the following: 80 μl dH2O, 2 μl 50 mM dNTP's, 1 μl each of forward and reverse primers (50 pmol/μl), 10 μl of 10× buffer and 1 μl Expand™ polymerase (Boehringer Mannheim). The PCR primers incorporated Bam HI sites onto the 5′ and 3′ end of the amplified fragment, and were purchased from Genosys. The forward and reverse primers were 5′-[…]-3′ and 5′[…]-3′, respectively. The PCR amplification was carried out in a DNA Thermal Cycler (Perkin Elmer) by repeating 30 cycles of 94° C. for 1 minute, 60° C. for 1 minute and 68° C. for 2 minutes. After amplification, excess primers and unincorporated dNTP's were removed from the amplified fragment with a Wizard™ PCR prep (Promega) and digested with Bam HI (New England Biolabs). The Bam HI digested fragment was ligated into BamHI digested pGEX 2T plasmid DNA (PharmaciaBiotech) using T-4 DNA ligase (New England Biolabs) as described by T. Maniatis, Molecular Cloning: A Laboratory Manual, 2nd ed. (1989). The ligation reaction was transformed into chemically competent E. coli DH10B cells purchased from Life-Technologies following the manufacturer's instructions. Plasmid DNA was isolated from the resulting bacterial colonies using a Promega Wizard™ miniprep kit. Plasmids containing the appropriate Bam HI fragment were sequenced in a DNA Thermal Cycler (Perkin Elmer) with Prism™ (Applied Biosystems Inc.). cDNA clones were identified that coded for both human p38a isoforms (Lee et al. Nature 372, 739). One of the clones which contained the cDNA for p38a-2 (CSBP-2) inserted in the cloning site of pGEX 2T, 3′ of the GST coding region was designated pMON 35802. The sequence obtained for this clone is an exact match of the cDNA clone reported by Lee et al. This expression plasmid allows for the production of a GST-p38a fusion protein.
Expression of Human p38a:
GST/p38a fusion protein was expressed from the plasmid pMON 35802 in E. coli, stain DH10B (Life Technologies, Gibco-BRL). Overnight cultures were grown in Luria Broth (LB) containing […] ampicillin. The next day, 500 ml of fresh LB was inoculated with 10 ml of overnight culture, and grown in a 2 liter flask at 37° C. with constant shaking until the culture reached an absorbance of 0.8 at 600 nm. Expression of the fusion protein was induced by addition of isopropyl b-D-thiogalactosidse (IPTG) to a final concentration of 0.05 mM. The cultures were shaken for three hours at room temperature, and the cells were harvested by centrifugation. The cell pellets were stored frozen until protein purification.
Purification of p38 Kinase-α:
All chemicals were from Sigma Chemical Co. unless noted. Twenty grams of E. coli cell pellet collected from five 1 L shake flask fermentations was resuspended in a volume of PBS (140 mM NaCl, 2.7 mM KCl, 10 mM Na2HPO4, 1.8 mM KH2PO4, pH 7.3) up to 200 ml. The cell suspension was adjusted to 5 mM DTT with 2 M DTT and then split equally into five 50 ml Falcon conical tubes. The cells were sonnicated (Ultrasonics model W375) with a 1 cm probe for 3×1 minutes (pulsed) on ice. […]

[2] = tested on: TNF-a (LPS-stimulated human peripheral blood mononuclear cells); assay: TNF Cell Assay: LPS stimulation of human PBM cells, TNF-a by ELISA; type: cell-based; settings: PBMC, LPS 20 ng/ml, overnight 37° C., compound 10-0.41 μM
Experimental: Method of Isolation of Human Peripheral Blood Mononuclear Cells:
Human whole blood was collected in Vacutainer tubes containing EDTA as an anticoagulant. A blood sample (7 ml) was carefully layered over 5 ml PMN Cell Isolation Medium (Robbins Scientific) in a 15 ml round bottom centrifuge tube. The sample was centrifuged at 450-500×g for 30-35 minutes in a swing out rotor at room temperature. After centrifugation, the top band of cells were removed and washed 3 times with PBS w/o calcium or magnesium. The cells were centrifuged at 400×g for 10 minutes at room temperature. The cells were resuspended in Macrophage Serum Free Medium (Gibco BRL) at a concentration of 2 million cells/ml.
LPS Stimulation of Human PBMS:
PBM cells (0.1 ml, 2 million/ml) were co-incubated with 0.1 ml compound (10-0.41 μM, final concentration) for 1 hour in flat bottom 96 well microtiter plates. Compounds were dissolved in DMSO initially and diluted in TCM for a final concentration of 0.1% DMSO. LPS (Calbiochem, 20 ng/ml, final concentration) was then added at a volume of 0.010 ml. Cultures were incubated overnight at 37° C. Supernatants were then removed and tested by ELISA for TNF-a and IL1-b. Viability was analyzed using MTS. After 0.1 ml supernatant was collected, 0.020 ml MTS was added to remaining 0.1 ml cells. The cells were incubated at 37° C. for 2-4 hours, then the O.D. was measured at […].

[3] = tested on: TNF-α released by U937 cells (human histiocytic lymphoma cell line); assay: U937 Cell Assay: LPS stimulation of TNF production by U937 cells, ELISA; type: cell-based; settings: U-937, differentiated U937 cells, LPS 100 ng/ml, 4 hour incubation
Experimental: Maintenance and Differentiation of the U937 Human Histiocytic Lymphoma Cell Line:
U937 cells (ATCC) were propagated in RPMI 1640 containing 10% fetal bovine serum, 100 IU/ml penicillin, 100 μg/ml streptomycin, and 2 mM glutamine (Gibco). Fifty million cells in 100 ml media were induced to terminal monocytic differentiation by 24 hour incubation with 20 ng/ml phorbol 12-myristate 13-acetate (Sigma). The cells were washed by centrifugation (200×g for 5 min) and resuspended in 100 ml fresh medium. After 24-48 hours, the cells were harvested, centrifuged, and resuspended in culture medium at 2 million cells/ml.
LPS Stimulation of TNF Production by U937 Cells:
U937 cells (0.1 ml, 2 million/ml) were incubated with 0.1 ml compound (0.004-50 μM, final concentration) for 1 hour in 96 well microtiter plates. Compounds were prepared as 10 mM stock solutions in DMSO and diluted in culture medium to yield a final DMSO concentration of 0.1% in the cell assay. LPS (E. coli, 100 ng/ml final concentration) was then added at a volume of 0.02 ml. After 4 hour incubation at 37° C., the amount of TNF-α released in the culture medium was quantitated by ELISA. Inhibitory potency is expressed as IC50 (μM).

T1 sequence (Q16539 whole entry): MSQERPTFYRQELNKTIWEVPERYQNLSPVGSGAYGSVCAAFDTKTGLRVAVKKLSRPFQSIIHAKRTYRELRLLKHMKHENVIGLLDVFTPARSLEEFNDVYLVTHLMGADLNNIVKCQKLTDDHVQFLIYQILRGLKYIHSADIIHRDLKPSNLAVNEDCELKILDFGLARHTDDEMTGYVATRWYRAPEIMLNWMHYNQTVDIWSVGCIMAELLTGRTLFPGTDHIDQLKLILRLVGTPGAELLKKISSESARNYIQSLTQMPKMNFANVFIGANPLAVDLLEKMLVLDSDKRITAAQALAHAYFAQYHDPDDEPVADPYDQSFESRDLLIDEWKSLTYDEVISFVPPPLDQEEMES

| Compound | IC50 [1] [µM] | IC50 [2] [µM] | melting point [°C] | IC50 [3] [µM] |
| --- | --- | --- | --- | --- |
| Cc1cccc(-n2nc(C)cc2-c2ccnc(S(C)(=O)=O)c2)c1 [Example 36, 2-(Methylsulfonyl)-4-[1-(3-methylphenyl)-3-methyl-1H-pyrazol-5-yl]pyridine] | 29.9 | > 10 | 140 to 142 | – |
| Fc1ccc(-n2nccc2-c2ccnc(NCCc3ccccc3)c2)cc1 [Example 30, 2-(Phenylethylamino)-4-[1-(4-fluorophenyl)-1H-pyrazol-5-yl]pyridine] | 0.024 | 10 | – | – |
| Cc1cccc(-n2nc(C)cc2-c2ccnc(C(N)=O)c2)c1 [Example 33, {4-[1-(3-Methylphenyl)-3-methyl-1H-pyrazol-5-yl]}-2-pyridine-2-carboxamide] | – | 5 | 193 to 195 | – |
| CCCc1c[nH][n+](-c2cccc(F)c2)c1-c1ccncc1 [Example 39] | – | – | 93 to 94 | – |
| Fc1ccc(-n2nccc2-c2ccnc(NCc3ccccc3)c2)cc1 [Example 29, 2-(Benzylamino)-4-[1-(4-fluorophenyl)-1H-pyrazol-5-yl]pyridine] | 0.129 | 1.3 | – | 0.24 |
| Cc1cnn(Cc2ccccc2)c1-c1ccncc1 [Example 4] | > 100 | > 10 | – | – |
| Cc1cccc(-n2nc(C)cc2-c2ccnc(N(C)CCc3ccccc3)c2)c1 [Example 25, 2-(N-Methylphenylethylamino)-4-[1-(3-methylphenyl)-3-methyl-1H-pyrazol-5-yl]pyridine] | 2.24 | 0.8 | – | – |
| O=C(O)c1cnn(-c2ccc(F)cc2)c1-c1ccncc1 [Example 43] | 65.1 | – | – | ≥ 10 |
| Fc1ccc(-n2ncc(N3CCNCC3)c2-c2ccncc2)cc1 [Example 18] | 35.7 | > 10 | – | ≥ 10 |
| Cc1cc(-c2ccnc(C(N)=O)c2)n(-c2ccc(F)cc2)n1 [Example 34, {4-[1-(4-Fluorophenyl)-3-methyl-1H-pyrazol-5-yl]}pyridine-2-carboxamide] | 44 | – | 168 to 170 | – |
| Cc1ccc(-n2nc(C)cc2-c2ccnc(NCc3ccccc3)c2)cc1 [Example 7] | 0.01 | 1.1 | 102.1 | – |
| Cc1cccc(-n2nc(C)cc2-c2ccnc(N)c2)c1 [Example 21, 2-Amino-4-[1-(3-methylphenyl)-3-methyl-1H-pyrazol-5-yl]pyridine] | 0.35 | 0.5 | 124 to 125 | – |
| Cc1cccc(-n2nc(C)cc2-c2ccnc(NCc3ccccc3)c2)c1 [Example 19, 2-(Benzylamino)-4-[1-(3-methylphenyl)-3-methyl-1H-pyrazol-5-yl]pyridine] | 0.002 | 0.1 | – | – |
| Cc1cc(-c2ccnc(NCc3ccccc3)c2)n(-c2cccc(F)c2)n1 [Example 20, 2-(Benzylamino)-4-[1-(3-fluorophenyl)-3-methyl-1H-pyrazol-5-yl]pyridine] | – | – | 94 to 96 | – |
| CCc1c[nH][n+](-c2cccc(F)c2)c1-c1ccncc1 [Example 40] | – | – | 109 to 110 | – |
| Cc1ccc(-n2nc(C)cc2-c2ccnc(N(C)C)c2)cc1 [Example 10] | > 100 | > 10 | – | – |
| Cc1ccc(-n2nc(C)cc2-c2ccnc(Cl)c2)cc1 [Example 41, 2-chloro-4-[3-methyl-1-(4-methylphenyl)-1H-pyrazol-5-yl]pyridine] | 14 | 2.9 | 100.07 | – |
| Cc1ccc(-n2nc(C)cc2-c2ccnc(NCCO)c2)cc1 [Example 5] | 1.4 | 0.2 | 148.2 | – |
| Cc1cc(-c2ccnc(N=[N+]=[N-])c2)n(-c2cccc(F)c2)n1 [Example 37, {4-[1-(3-Fluorophenyl)-3-methyl-1H-pyrazol-5-yl]}pyridine-2-azide] | 85 | 2.2 | 134 to 135 | – |
| Cc1ccc(-n2nc(C)cc2-c2cccc(N)c2)cc1 [Example 14] | > 100 | > 10 | 94.38 | – |
| Cc1cnn(-c2cccc(F)c2)c1-c1ccncc1 [Example 2] | 37.2 | 4 | 131.11 | – |
| Cc1ccc(-n2nc(C)cc2-c2ccnc(NCc3cccnc3)c2)cc1 [Example 6] | 0.4 | 1.5 | 108.94 | – |
| Cc1cc(-c2ccnc(Cl)c2)n(-c2cccc(F)c2)n1 [Example 46, 2-Chloro-4-[1-(3-fluorophenyl)-3-methyl-1H-pyrazol-5-yl]pyridine] | 67.7 | – | – | > 10 |
| COC(=O)c1cnn(-c2ccc(F)cc2)c1-c1ccncc1 [Example 42, Methyl 1-(4-Fluorophenyl)-5-(4-pyridinyl)-1H-pyrazole-4-carboxylate] | 2.68 | – | – | ≥ 10 |
| Cc1cc(-c2ccnc(NCc3cccnc3)c2)n(-c2cccc(F)c2)n1 [Example 38, 2-(3-Pyridylmethylamino)-4-[1-(3-fluorophenyl)-3-methyl-1H-pyrazol-5-yl]pyridine] | 0.219 | 0.6 | – | – |
